Test results from US20250368640A1 (BIOFRONT LTD, priority 2022, published 2025).
Where two headings read alike, the source gives them in different places.

Experiments:
HPK1 [1] = biological target: T1, HPK1 (Homo sapiens (Human), UniProt Q92918); assay: HPK1 degradation assay (western blot, human PBMC); type: cell-based; details: for Dmax: read-out: HPK1 Dmax
Experimental: Frozen human PBMC were purchased from Shanghai OribioTech and recovered with culture medium (RMPI1640) prior to use. The cells were then incubated with a variety of concentrations of compound. After incubation, the cells were collected and lysed. The protein concentration was determined by BCA protein assay kit from Thermo (23227). The HPK1 protein level was determined by western blots, using anti-human HPK1 polyclonal antibody from CST (4472S). Proteins were loaded into each well of the pre-casting gels and subjected to electrophoretic separation by SDS-PAGE. The protein resolved by SDS-PAGE were transferred to PVDF, blocked by 5% skim milk, and probed with anti-human HPK1 antibody or β-actin antibody from CST (3700S), using standard western blotting procedure.
Target sequence in this assay (Q92918 whole entry): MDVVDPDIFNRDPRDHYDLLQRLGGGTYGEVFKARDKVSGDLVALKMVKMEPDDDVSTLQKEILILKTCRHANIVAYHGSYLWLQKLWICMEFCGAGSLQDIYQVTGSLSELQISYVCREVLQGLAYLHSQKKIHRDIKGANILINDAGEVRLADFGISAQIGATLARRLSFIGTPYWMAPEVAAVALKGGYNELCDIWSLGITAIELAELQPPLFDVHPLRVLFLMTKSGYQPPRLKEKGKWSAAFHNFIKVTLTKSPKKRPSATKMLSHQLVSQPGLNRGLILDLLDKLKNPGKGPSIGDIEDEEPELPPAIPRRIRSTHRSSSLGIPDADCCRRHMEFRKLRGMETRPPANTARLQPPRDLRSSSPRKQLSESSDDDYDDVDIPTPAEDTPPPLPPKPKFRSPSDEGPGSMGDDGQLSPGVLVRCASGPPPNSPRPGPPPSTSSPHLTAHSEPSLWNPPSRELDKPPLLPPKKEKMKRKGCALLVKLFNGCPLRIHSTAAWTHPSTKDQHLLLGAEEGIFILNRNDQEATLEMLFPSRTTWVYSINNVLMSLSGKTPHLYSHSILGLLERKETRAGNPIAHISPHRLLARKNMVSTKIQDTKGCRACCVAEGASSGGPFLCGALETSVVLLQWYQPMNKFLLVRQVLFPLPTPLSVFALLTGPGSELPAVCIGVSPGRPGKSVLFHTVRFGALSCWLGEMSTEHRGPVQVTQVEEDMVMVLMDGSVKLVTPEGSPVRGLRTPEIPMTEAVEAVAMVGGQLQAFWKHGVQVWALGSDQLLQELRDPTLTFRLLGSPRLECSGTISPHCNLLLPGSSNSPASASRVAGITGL

FLT3-ITD = FLT3-ITD (Homo sapiens, UniProt P36888, ITD); assay: FLT3-ITD enzyme inhibition assay; type: biochemical
Chain of FLT3-ITD (P36888 whole entry, looked up, change not shown): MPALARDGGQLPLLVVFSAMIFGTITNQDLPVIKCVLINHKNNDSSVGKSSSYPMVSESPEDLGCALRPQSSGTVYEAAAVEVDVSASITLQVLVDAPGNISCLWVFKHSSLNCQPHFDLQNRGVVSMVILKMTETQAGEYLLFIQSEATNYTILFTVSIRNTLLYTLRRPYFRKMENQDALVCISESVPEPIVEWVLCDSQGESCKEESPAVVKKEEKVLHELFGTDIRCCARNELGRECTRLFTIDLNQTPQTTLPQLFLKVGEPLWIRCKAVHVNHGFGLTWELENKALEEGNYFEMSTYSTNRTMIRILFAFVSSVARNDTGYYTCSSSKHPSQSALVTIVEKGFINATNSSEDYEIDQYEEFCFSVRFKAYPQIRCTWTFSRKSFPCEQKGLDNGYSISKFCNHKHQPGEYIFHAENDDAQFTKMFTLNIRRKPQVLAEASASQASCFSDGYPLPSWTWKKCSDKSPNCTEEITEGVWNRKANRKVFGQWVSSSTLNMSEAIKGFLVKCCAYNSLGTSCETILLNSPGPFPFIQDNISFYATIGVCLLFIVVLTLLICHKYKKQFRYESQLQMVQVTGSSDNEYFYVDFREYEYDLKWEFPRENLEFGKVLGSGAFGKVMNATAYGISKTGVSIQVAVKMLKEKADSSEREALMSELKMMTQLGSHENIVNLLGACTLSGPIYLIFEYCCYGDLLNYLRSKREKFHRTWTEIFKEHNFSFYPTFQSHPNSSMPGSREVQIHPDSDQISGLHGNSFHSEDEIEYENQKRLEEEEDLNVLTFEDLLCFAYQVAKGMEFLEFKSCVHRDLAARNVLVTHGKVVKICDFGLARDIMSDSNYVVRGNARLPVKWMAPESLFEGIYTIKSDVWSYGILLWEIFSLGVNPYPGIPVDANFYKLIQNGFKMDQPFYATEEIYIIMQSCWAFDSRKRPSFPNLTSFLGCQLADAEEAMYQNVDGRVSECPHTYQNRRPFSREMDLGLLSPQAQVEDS
Experimental: FLT3-ITD Enzyme Inhibition Assay
The compound was dissolved in 100% DMSO at the concentration of 10 mM. The FLT3-ITD protein was purchased from Invitrogen (PV6191). 10 μL per well of 2.5×FLT3-ITD protein was added to assay plate containing the test compound, centrifuged at 1000 rpm for 1 minute, and then incubated at 25° C. for 10 minutes. Peptide 2 was purchased from GL Biochem (112394) and ATP was purchased from Promega (V9102). The two were added 15 μL per well mixture of 1.67× peptide 2 (final conc. is 3 μM) and ATP (final conc. is 97.2 μM), centrifuged at 1000 rpm for 1 minute, then incubated at 25° C. for 40 minutes. Then added 30 μL of stop buffer (100 mM HEPES pH7.5, 0.015% Brij-35, 0.2% Coating Reagent 3, 50 mM EDTA) to the assay plate and centrifuged at 1000 rpm for 1 minute. the product was determined. Based on the results, the IC50 value of the compound was calculated.

Aurora A [2] = biological target: T2, Aurora A (Homo sapiens (Human), UniProt O14965); assay: Aurora A degradation assay (western blot); type: cell-based; details: protein degradation, IMR32, Huh7 or HL-60 cells
T2 sequence (O14965 whole entry): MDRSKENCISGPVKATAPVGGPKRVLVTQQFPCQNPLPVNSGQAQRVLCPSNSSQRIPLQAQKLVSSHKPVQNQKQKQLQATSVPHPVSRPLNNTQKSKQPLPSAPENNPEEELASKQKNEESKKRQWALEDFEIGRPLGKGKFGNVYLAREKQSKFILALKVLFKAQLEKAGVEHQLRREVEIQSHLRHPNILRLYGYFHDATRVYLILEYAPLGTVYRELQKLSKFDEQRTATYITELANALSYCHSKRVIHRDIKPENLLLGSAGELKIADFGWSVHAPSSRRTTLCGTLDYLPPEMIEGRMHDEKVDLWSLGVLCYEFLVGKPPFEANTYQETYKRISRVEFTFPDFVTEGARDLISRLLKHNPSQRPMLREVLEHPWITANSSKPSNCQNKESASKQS
Experimental: Aurora A Degradation Assay
IMR32 cells were cultured with medium (MEM), Huh7 cells were cultured with medium (DMEM) and HL-60 cells were culture with medium (IMDM) prior to use. Cells were then incubated with a variety of concentrations of compound. After incubation, the cells were collected and lysed. The protein concentration was determined by BCA protein assay kit from Thermo (23227). The AURKA protein level was determined by western blots, using anti-human AURKA monoclonal antibody from CST (14475S). Proteins were loaded into each well of the pre-casting gels and subjected to electrophoretic separation by SDS-PAGE. The protein resolved by SDS-PAGE were transferred to PVDF, blocked by 5% skim milk, and probed with anti-human AURKA antibody or β-actin antibody from CST (3700S) or COX IV antibody from CST (4850S), using standard western blotting procedure.

MEK 1/2 = MEK 1/2 degradation assay (western blot); type: cell-based, human; details: protein degradation, MV-411 or IMR32 cells
Experimental: MEK 1/2 Degradation Assay
(§1) MV-411 cells were cultured with medium (IMDM) and IMR32 cells were cultured with medium (MEM) prior to use. Cells were then incubated with a variety of concentrations of compound. After incubation, the cells were collected and lysed. The protein concentration was determined by BCA protein assay kit from Thermo (23227). The […] protein level was determined by western blots, using anti-human MEK 1/2 polyclonal antibody from CST (9122S). Proteins were loaded into each well of the pre-casting gels and subjected to electrophoretic separation by SDS-PAGE. The protein resolved by SDS-PAGE were transferred to PVDF, blocked by 5% skim milk, and probed with anti-human MEK1/2 antibody or β-actin antibody from CST (3700S) and COX IV antibody from CST (4850S), using standard western blotting procedure.

FLT3 = FLT3 degradation assay (western blot, MV-411 cells); type: cell-based, human
Experimental: as §1, with “(IMDM)” for “(IMDM) and IMR32 cells were cultured with medium (MEM)”, “FLT3 monoclonal” for “MEK 1/2 polyclonal”, “(3462S).” for “(9122S).”, “FLT3” for “MEK1/2”, “-actin” for “β-actin”, “(3700S),” for “(3700S) and COX IV antibody from CST (4850S),”

HPK1 [3] = biological target: T1, HPK1; assay: HPK1 enzyme inhibition assay (ADP-Glo); type: biochemical
Experimental: HPK1 Enzyme Inhibition Assay
The compound was dissolved in 100% DMSO at the concentration of 10 mM. The HPK1 protein was purchased from Signal Chem (M23-11G-10). 2.5 μL per well of 2×HPK1 protein was added to assay plate containing the test compound, centrifuged at 1500 rpm for 1 minute, and then incubated at 25° C. for 60 minutes. MBP protein was purchased from Signal Chem (M42-51N) and ATP was purchased from Promega (V9102). The two were added 2.5 μL per well mixture of 2×MBP (0.2 ug/ul) and ATP (20 μM), centrifuged at 1500 rpm for 1 minute, then incubated at 25° C. for 60 minutes. Then added 5 μL of ADP-Glo from Promega (V9102) to the assay plate and depleted the unconsumed ATP for 60 minutes. Then centrifuged at 1500 rpm for 1 minute and incubated at 25° C. for 60 minutes. Finally, 10 μL of the kinase assay reagent from Promega (V9102) was added to the assay plate to convert ADP to ATP, centrifuged at 1500 rpm for 1 minute, incubate at 25° C. for 40 minutes. After 40 minutes incubation, the […] was determined. Based on the results, the IC50 value of the compound was calculated.
Target sequence in this assay (Q92918 1-346 limits assumed): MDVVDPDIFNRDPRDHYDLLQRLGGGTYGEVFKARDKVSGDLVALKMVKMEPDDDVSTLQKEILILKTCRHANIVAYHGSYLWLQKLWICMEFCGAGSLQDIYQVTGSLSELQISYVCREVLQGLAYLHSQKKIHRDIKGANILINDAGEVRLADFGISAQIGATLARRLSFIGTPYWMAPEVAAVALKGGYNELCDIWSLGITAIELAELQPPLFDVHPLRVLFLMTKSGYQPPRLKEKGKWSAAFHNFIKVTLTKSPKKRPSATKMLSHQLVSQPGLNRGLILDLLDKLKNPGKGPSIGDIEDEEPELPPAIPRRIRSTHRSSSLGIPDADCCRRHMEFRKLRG

Aurora A [4] = biological target: T2, Aurora A; assay: Aurora A enzyme inhibition assay; type: biochemical
Experimental: Aurora A Enzyme Inhibition Assay
The compound was dissolved in 100% DMSO at the concentration of 10 mM. The Aurora A protein was purchased from Carna (05-101). 10 μL per well of 2.5×Aurora A protein was added to assay plate containing the test compound, centrifuged at 1000 rpm for 1 minute, and then incubated at 25° C. for 10 minutes. Peptide 21 was purchased from GL Biochem (116370) and ATP was purchased from Promega (V9102). The two were added 15 μL per well mixture of 1.67× peptide 21 (final conc. is 3 μM) and ATP (final conc. is 14.58 μM), centrifuged at 1000 rpm for 1 minute, then incubated at 25° C. for 40 minutes. Then added 30 μL of stop buffer (100 mM HEPES pH7.5, 0.015% Brij-35, 0.2% Coating Reagent 3, 50 mM EDTA) to the assay plate and centrifuged at 1000 rpm for 1 minute. the product was determined. Based on the results, the IC50 value of the compound was calculated.

[5] = protein degradation, human PBMC, read-out: HPK1 DC50
[6] = protein degradation, human PBMC
[7] = enzyme inhibition, read-out: FLT3-ITD IC50
[8] = class symbol, read-out: Aurora A DC50 (nM)/Dmax (%)
[9] = protein degradation, class symbol, read-out: FLT3 DC50 (nM)/Dmax (%)
[10] = protein degradation, human PBMC, class symbol, read-out: HPK1 DC50 (nM)/Dmax (%)

SMILES	IC50 (FLT3-ITD; [7]) [nM]	DC50 (Aurora A [2]; [8]) [nM]	MEK 1/2 Dmax (MEK 1/2) [%]	DC50 (MEK 1/2; read-out: MEK 1/2 DC50) [nM]	DC50 (FLT3; [9]) [nM]	IC50 (HPK1 [3]) [nM]	IC50 (Aurora A [4]) [nM]	DC50 (HPK1 [1]; [10]) [nM]	also measured
CCc1c[nH]c2ncc(-c3cccc(N4CCCN(CCN5CC(c6ccc7c(c6)C(=O)N(C6CCC(=O)NC6=O)C7)C5)C4=O)c3)c(Cl)c12 (centres unmarked) [Example 1]	4	> 10000	20	68	> 10000	–	–	–	DC50 (HPK1 [1]; [5]): 173 nM; Dmax (HPK1 [1]; [6]): 75%
CCc1c[nH]c2ncc(-c3cccc(N4CCCN(CCN5CC(c6ccc7c(c6)CN(C6CCC(=O)NC6=O)C7=O)C5)C4=O)c3)c(Cl)c12 (centres unmarked) [Example 2]	–	–	–	–	–	–	–	–	DC50 (HPK1 [1]; read-out: HPK1 DC50, protein degradation, human PBMC): 3 nM; Dmax (HPK1 [1]): 80%; IC50 (FLT3-ITD): 4.7 nM; DC50 (Aurora A [2]; read-out: Aurora A DC50 (nM)/Dmax (%), class symbol): > 10000 nM; DC50 (MEK 1/2; read-out: MEK 1/2 DC50 (nM)/Dmax (%), class symbol): > 10000 nM; DC50 (FLT3; read-out: FLT3 DC50 (nM)/Dmax (%), protein degradation, class symbol): > 10000 nM
CCc1c[nH]c2ncc(-c3cccc(N4CCCN(CCN5CCC(c6ccc7c(c6)C(=O)N(C6CCC(=O)NC6=O)C7=O)CC5)C4=O)c3)c(Cl)c12 (centres unmarked) [Example 3, 5-(1-(2-(3-(3-(4-chloro-3-ethyl-1H-pyrrolo [2,3-b]pyridin-5-yl)phenyl)-2-oxotetrahydropyrimidin-1 (2H)-yl)ethyl)piperidin-4-yl)-2-(2,6-dioxopiperidin-3-yl) isoindoline-1,3-dione]	13.6	–	–	–	–	5.8	50.8	–	–
CCc1c[nH]c2ncc(-c3cccc(N4CCCN(CCN5CCN(c6ccc7c(N8CCC(=O)NC8=O)cccc7c6)CC5)C4=O)c3)c(Cl)c12 [Example 4, 1-(6-(4-(2-(3-(3-(4-chloro-3-ethyl-1H-pyrrolo [2,3-b]pyridin-5-yl)phenyl)-2-oxotetrahydropyrimidin-1 (2H)-yl)ethyl)piperazin-1-yl)naphthalen-1-yl) dihydropyrimidine-2, 4 (1H, 3H)-dione]	24	> 10000	30	< 1	> 10000	17.1	25.2	> 10000	–
CCc1c[nH]c2ncc(-c3cccc(N4CCCN(CCN5CC=C(c6ccc7c(c6)C(=O)N(C6CCC(=O)NC6=O)C7=O)CC5)C4=O)c3)c(Cl)c12 (centres unmarked) [Example 5, 5-(1-(2-(3-(3-(4-chloro-3-ethyl-1H-pyrrolo [2,3-b]pyridin-5-yl)phenyl)-2-oxotetrahydropyrimidin-1 (2H)-yl)ethyl)-1,2,3,6-tetrahydropyridin-4-yl)-2-(2,6-dioxopiperidin-3-yl) isoindoline-1,3-dione]	27.7	> 10000	65	2.1	> 10000	13.4	21.8	> 10000	–
CCc1c[nH]c2ncc(-c3cccc(N4CCCN(CCN5CC(c6ccc7c(c6)C(=O)N(C6CCC(=O)NC6=O)C7=O)C5)C4=O)c3)c(Cl)c12 (centres unmarked) [Example 6, 5-(1-(2-(3-(3-(4-chloro-3-ethyl-1H-pyrrolo [2,3-b]pyridin-5-yl)phenyl)-2-oxotetra hydropyrimidin-1 (2H)-yl)ethyl)azetidin-3-yl)-2-(2,6-dioxopiperidin-3-yl) isoindo line-1,3-dione]	18.4	> 10000	32	< 1	> 10000	3.1	9.9	> 10000	–
CCc1c[nH]c2ncc(-c3cccc(N4CCCN(CC5CCN(c6ccc7c(c6)C(=O)N(C6CCC(=O)N(C)C6=O)C7=O)CC5)C4=O)c3)c(Cl)c12 (centres unmarked) [Example 10, 5-(4-((3-(3-(4-chloro-3-ethyl-1H-pyrrolo [2,3-b]pyridin-5-yl)phenyl)-2-oxotetrahydropyrimidin-1 (2H)-yl)methyl)piperidin-1-yl)-2-(1-methyl-2,6-dioxopiperidin-3-yl) isoindoline-1,3-dione]	7.4	–	–	–	–	30.7	34.8	–	–
O=C1CCC(N2Cc3cc(N4CCC(CN5CCCN(c6cccc(-c7cnc8[nH]cc(C9CC9)c8c7Cl)c6)C5=O)CC4)ccc3C2=O)C(=O)N1 (centres unmarked) [Example 12, 3-[5-(4-{[3-(3-{4-chloro-3-cyclopropyl-1H-pyrrolo [2,3-b]pyridin-3-yl}phenyl)-2-oxo-1,3-diazinan-1-yl]methyl}piperidin-1-yl)-1-oxo-3H-isoindol-2-yl]piperidine-2,6-dione]	–	–	–	–	–	34.3	–	–	–
O=C1CCC(N2Cc3cc(N4CCC(CN5CCCN(c6cccc(-c7cnc8[nH]cc(CC(F)F)c8c7Cl)c6)C5=O)CC4)ccc3C2=O)C(=O)N1 (centres unmarked) [Example 14]	–	–	90	< 100	–	25.8	–	–	DC50 (HPK1 [1]; [5]): 100 nM; Dmax (HPK1 [1]; [6]): 90%; DC50 (Aurora A [2]; read-out: Aurora A DC50): < 20 nM; Dmax (Aurora A [2]; read-out: Aurora A Dmax): 95%; FLT3 Dmax (FLT3; protein degradation): 95%; DC50 (FLT3; protein degradation, read-out: FLT3 DC50): 11 nM
